In the OPERA property sets (Mansouri et al. 2018):
Converted amounts (≈) assume the structure as drawn.

CC(C)=C1OC(=O)N(c2cc(OC3CCCC3)c(Cl)cc2F)C1=O
solubility (25 °C): 0.000611 mM (≈ 0.216 µg/mL)

Cc1cccc(C)c1N(C(=O)CCl)C1CCOC1=O (centres undefined)
logP: 1.39 | solubility (20 °C): 0.518 mM (≈ 146 µg/mL)

CN(C(O)=NC(C)(C)c1ccccc1)c1ccccc1
logP: 3.01

COc1cc(OC)nc(Oc2cccc(Oc3nc(OC)cc(OC)n3)c2C(=O)[O-])n1.[Na+]
logP: -1.03

COc1cc(OC)nc(NC(=O)NS(=O)(=O)c2c(-c3nnn(C)n3)cnn2C)n1
logP: 0.65 | solubility (pH 7.0, 20 °C): 2.47 mM (≈ 1050 µg/mL)

CON=C(C)c1cccc(Oc2nc(OC)cc(OC)n2)c1C(=O)OC
logP: 2.84 | solubility (20 °C): 0.249 mM (≈ 90 µg/mL)

CCC(Nc1ncnc(C)c1Cl)c1ccc(OC(F)F)cc1 (centres undefined)
solubility: 0.101 mM (≈ 33 µg/mL)

NC(=O)c1nc(-c2ccccc2)n(-c2ccc(Cl)c(COCC(F)(F)C(F)(F)F)c2)n1
solubility (pH 7.4, 20 °C): 0.00217 mM (≈ 1 µg/mL)

CCCOC(=O)NCCCN(C)C
solubility (pH 7.0, 20 °C): 4780 mM (≈ 900000 µg/mL)

Oc1ccc(Cl)cc1Cc1cc(Cl)ccc1O
solubility (25 °C): 0.111 mM (≈ 30 µg/mL)

CC(C)(C)C(O)/C(=C\c1ccc(Cl)cc1)n1cncn1 (centres undefined)
logP: 3.67

C=C/C=C\CC1=C(C)[C@@H](OC(=O)[C@@H]2[C@@H](/C=C(\C)C(=O)OC)C2(C)C)CC1=O
logP: 4.3

NC(=O)C1(N2C(=O)c3cccc(Cl)c3C2=O)CCCCC1
solubility (25 °C): 0.0978 mM (≈ 30 µg/mL)

CS(=O)(=O)c1ccc(C(=O)C2C(=O)CCCC2=O)c(Cl)c1
solubility (25 °C): 0.502 mM (≈ 165 µg/mL)

CC1=CC[C@@H]2C[C@@H](C[C@]3(CC[C@H](C)[C@@H](C)O3)O2)OC(=O)[C@@H]2C=C(C)[C@@H](O)[C@H]3OCC(=CC=C[C@H](C)C1)[C@]32O
logP: 5.3 | solubility (20 °C): 0.00166 mM (≈ 0.88 µg/mL)

CCOC(=O)Cn1c(=O)sc2cccc(Cl)c21
solubility (20 °C): 0.173 mM (≈ 47 µg/mL)

O=C(NC(=O)c1c(F)cccc1F)Nc1ccc(OC(F)(F)C(F)OC(F)(F)F)c(Cl)c1 (centres undefined)
logP: 5.27 | solubility (25 °C): 0.000108 mM (≈ 0.0531 µg/mL)

CCNc1nc(Cl)nc(NCC)n1
solubility (20 °C): 0.046 mM (≈ 9.28 µg/mL)

CCN(CC)C(=O)n1cnc(S(=O)(=O)c2c(C)cc(C)cc2C)n1
logP: 3.21

CCOC(=O)[C@@H](C)Oc1ccc(Oc2nc3ccc(Cl)cc3o2)cc1
logP: 4.58

CS(=O)(=O)c1cc(C(F)(F)F)ccc1C(=O)c1cnoc1C1CC1
logP: 2.32 | solubility (pH 5.5, 20 °C): 0.0173 mM (≈ 6.2 µg/mL)

COC(=O)C(C)Oc1ccc(Oc2ncc(C(F)(F)F)cc2Cl)cc1 (centres undefined)
logP: 4.07

CNC(=O)Oc1cccc(N=CN(C)C)c1.Cl
solubility (25 °C): 3190 mM

CCNc1nc(Cl)nc(N(CC)CC)n1
solubility (25 °C): 0.0871 mM (≈ 20 µg/mL)

COCC(=O)N(c1c(C)cccc1C)N1CCOC1=O
logP: 0.8 | solubility (20 °C): 12.2 mM (≈ 3400 µg/mL)

N#Cc1c(Cl)cccc1Cl
solubility (20 °C): 0.105 mM (≈ 18 µg/mL)

CNc1cnn(-c2cccc(C(F)(F)F)c2)c(=O)c1Cl
solubility (25 °C): 0.111 mM (≈ 33.7 µg/mL)

Cc1ccc(N(SC(F)(Cl)Cl)S(=O)(=O)N(C)C)cc1
logP: 3.9 | solubility (20 °C): 0.00259 mM (≈ 0.9 µg/mL)

COCCN(C(=O)CCl)c1c(C)cccc1C
logP: 2.17 | solubility (20 °C): 8.59 mM (≈ 2200 µg/mL)

CCC(C)Nc1c([N+](=O)[O-])cc(C(C)(C)C)cc1[N+](=O)[O-] (centres undefined)
logP: 4.93

CN(C)NC(=O)CCC(=O)O
logP: -1.5

CCCCOCC(C)OC(=O)COc1nc(F)c(Cl)c(N)c1Cl (centres undefined)
logP: 4.17

CNC(=O)N(C)c1nnc(C(C)(C)C)s1
solubility (25 °C): 10.5 mM (≈ 2400 µg/mL)

CNC(=O)ON=C(SC)C(=O)N(C)C
solubility (25 °C): 1280 mM (≈ 280000 µg/mL)

CCCOCCN(C(=O)CCl)c1c(CC)cccc1CC
logP: 4.08 | solubility (20 °C): 0.16 mM (≈ 50 µg/mL)

COC(C)(C)CCCC(C)C/C=C/C(C)=C/C(=O)OC(C)C (centres undefined)
solubility: 0.00451 mM (≈ 1.4 µg/mL)

CCCCC(O)(Cn1cncn1)c1ccc(Cl)cc1Cl (centres undefined)
logP: 3.9

O=C1C2CC=CCC2C(=O)N1SC(Cl)(Cl)Cl (centres undefined)
logP: 2.8

COc1cc(OC)nc(NC(=O)NS(=O)(=O)c2ncccc2C(=O)N(C)C)n1
logP: 0.01

CC1CCCCC1NC(=O)Nc1ccccc1 (centres undefined)
logP: 3.8

CC1(C)C(C=C(Cl)Cl)C1C(=O)OC(C#N)c1ccc(F)c(Oc2ccccc2)c1 (centres undefined)
solubility (20 °C): 6.91e-06 mM (≈ 0.003 µg/mL)

CCOC(=O)C1CC(=O)C(=C(O)C2CC2)C(=O)C1 (centres undefined)
logP: 1.6

CCOP(=S)(OCC)Oc1ncn(-c2ccccc2)n1
logP: 3.34 | solubility (pH 7.0, 20 °C): 0.0992 mM (≈ 31.1 µg/mL)

O=C(Nc1ccc(F)cc1F)c1cccnc1Oc1cccc(C(F)(F)F)c1
solubility (25 °C): < 0.000127 mM

COCc1cnc(C2=NC(C)(C(C)C)C(=O)N2)c(C(=O)O)c1 (centres undefined)
logP: 0.73

CCOc1nc(C(Cl)(Cl)Cl)ns1
logP: 3.37 | solubility (25 °C): 0.473 mM (≈ 117 µg/mL)

C[N+]1(C)CCCCC1.[Cl-]
logD (pH 7.0): -2.82

CO/C=C(/C(=O)OC)c1ccccc1Oc1cc(Oc2ccccc2C#N)ncn1
logP: 2.5 | solubility (20 °C): 0.0149 mM (≈ 6 µg/mL)

ClC=CCCl (mixture of isomers)
logP: 2.04

O=C(NC(=O)c1c(F)cccc1F)Nc1cc(Cl)c(F)c(Cl)c1F
solubility (23 °C): 5.12e-05 mM (≈ 0.0195 µg/mL)

CNC(=O)Oc1cc(C)cc(C)c1
solubility (20 °C): 2.62 mM (≈ 470 µg/mL)

CCCSP(=S)(OCC)Oc1ccc(SC)cc1 (centres undefined)
logP: 5.48

CC1(C)[C@H](C(=O)O[C@H](C#N)c2cccc(Oc3ccccc3)c2)[C@@H]1/C=C\C(=O)OC(C(F)(F)F)C(F)(F)F
solubility (25 °C): 3.69e-05 mM (≈ 0.02 µg/mL)

O=C(NC(=O)c1c(F)cccc1F)Nc1ccc(Cl)c(Oc2ncc(C(F)(F)F)cc2Cl)c1
solubility (25 °C): < 3.95e-05 mM

O=[n+]1[n-]c(-n2ccnc2)nc2ccc(Cl)cc21
logP: 2.04 | solubility (20 °C): 0.137 mM (≈ 34 µg/mL)

O=S(=O)(c1ccc(Cl)cc1)c1cc(Cl)c(Cl)cc1Cl
logP: 4.61 | solubility (20 °C): 0.000219 mM (≈ 0.078 µg/mL)

O=C(Nc1ccc(Cl)c(Cl)c1)Nc1cc(Cl)ccc1Oc1ccc(Cl)cc1S(=O)(=O)[O-].[Na+]
logP: 1.89

Cc1c(COC(=O)[C@@H]2[C@H](/C=C(\Cl)C(F)(F)F)C2(C)C)cccc1-c1ccccc1 (racemic)
solubility: 0.000236 mM (≈ 0.1 µg/mL)

CCCN(CCC)c1c([N+](=O)[O-])cc(C(F)(F)F)c(N)c1[N+](=O)[O-]
logP: 4.1

O=C(O)Cn1c(=O)sc2cccc(Cl)c21
logP: 1.34

CCCCCCCCSC(=O)Oc1cc(Cl)nnc1-c1ccccc1
solubility (20 °C): 0.00396 mM (≈ 1.5 µg/mL)

C/C=C(\C)C(=O)O[C@H]1C[C@@H](OC(C)=O)[C@@]2(C(=O)OC)CO[C@H]3[C@@H](O)[C@@](C)([C@]45O[C@@]4(C)[C@H]4C[C@@H]5O[C@@H]5OC=C[C@@]54O)[C@H]4[C@]1(CO[C@]4(O)C(=O)OC)[C@@H]32
logP: 1.09

CCS(=O)CCSP(=O)(OC)OC (centres undefined)
logP: -0.74

CC(C)Oc1cccc(NC(=O)c2ccccc2C(F)(F)F)c1
solubility (20 °C): 0.0244 mM (≈ 7.88 µg/mL)

CCCCOC(=O)C1(O)c2ccccc2-c2ccccc21
logP: 3.7

CCNP(=S)(OC)O/C(C)=C/C(=O)OC(C)C (centres undefined)
logP: 3.82

CCN(Cc1ccc(Cl)nc1)C(=C[N+](=O)[O-])NC
solubility (pH 7.0, 20 °C): 3100 mM (≈ 840000 µg/mL)

CC#CCOC(C)c1ccc(OC)c(OC)c1 (centres undefined)
logP: 2.4 | solubility: 0.00427 mM (≈ 1 µg/mL)

CC1(C)[C@H](/C=C(\Cl)C(F)(F)F)[C@@H]1C(=O)O[C@H](C#N)c1cccc(Oc2ccccc2)c1
logP: 6.8

N#Cc1nn(-c2c(Cl)cc(C(F)(F)F)cc2Cl)c(N)c1S(=O)C(F)(F)F (centres undefined)
logP: 4 | solubility (20 °C): 0.00435 mM (≈ 1.9 µg/mL)

CCOC(=O)C(Cl)Cc1cc(-n2nc(C)n(C(F)F)c2=O)c(F)cc1Cl (centres undefined)
logP: 3.36 | solubility (25 °C): 0.0534 mM (≈ 22 µg/mL)

CC(C)OC(=O)[C@@H](C)N(C(=O)c1ccccc1)c1ccc(F)c(Cl)c1
logP: 3.69

C/C(=N\NC(=O)Nc1cc(F)cc(F)c1)c1ncccc1C(=O)O
solubility: 0.188 mM (≈ 63 µg/mL)

O=CNC(N1CCN(C(NC=O)C(Cl)(Cl)Cl)CC1)C(Cl)(Cl)Cl (centres undefined)
logP: 2.2

Cc1ccn2nc(S(=O)(=O)Nc3c(F)cccc3F)nc2n1
solubility (pH 2.5): 0.15 mM (≈ 48.7 µg/mL)

COCC(=O)N(c1c(C)cccc1C)C(C)C(=O)OC (centres undefined)
solubility (24 °C): 36.4 mM (≈ 10200 µg/mL)

COC(=O)/C=C(\C)OP(=O)(OC)OC
logP: 0.13

CC(C)OC(=O)c1cc(C(=O)OC(C)C)cc([N+](=O)[O-])c1
solubility (20 °C): 0.00914 mM (≈ 2.7 µg/mL)

CCOc1ccc([Si](C)(C)CCCc2ccc(F)c(Oc3ccccc3)c2)cc1
logP: 8.2

COc1cc(OC)nc(Sc2cccc(Cl)c2C(=O)[O-])n1.[Na+]
logD (pH 5.0): 0.6

CC(C)OC(=O)C(C(=O)OC(C)C)=C1SCCS1
solubility (25 °C): 0.175 mM (≈ 50.9 µg/mL)

Fc1cccc(F)c1-c1nnc(-c2ccccc2Cl)nn1
logP: 3.3

CN(C)c1nc(=O)n(C2CCCCC2)c(=O)n1C
solubility (25 °C): 131 mM (≈ 33000 µg/mL)

CC1CCCCN1CCCOC(=O)c1ccc(Cl)c(Cl)c1 (centres undefined)
logP: 4.31

O=C(O)c1ccccc1C(=O)Nc1ccccc1
solubility (20 °C): 0.0829 mM (≈ 20 µg/mL)

CCSC(=O)COc1ccc(Cl)cc1C
logP: 4.05

CC(C)(C)c1cc([N+](=O)[O-])cc([N+](=O)[O-])c1O
solubility (pH 5.0, 20 °C): 0.0187 mM (≈ 4.5 µg/mL)

CCCN(CC)CC1COC2(CCC(C(C)(C)C)CC2)O1 (centres undefined)
solubility (pH 7.0, 20 °C): 1.58 mM (≈ 470 µg/mL)

O=C1CC(C(=O)O)CC(=O)C1=C(O)C1CC1 (centres undefined)
logD (pH 2.0): 1.8 | solubility (pH 5.0, 20 °C): 5.8 mM (≈ 1300 µg/mL)

CCCN(CCC)c1c([N+](=O)[O-])cc(C(F)(F)F)cc1[N+](=O)[O-]
solubility (pH 5.0, 25 °C): 0.000701 mM (≈ 0.235 µg/mL)
